Experimental findings from publication PMC3880221 (Chembiochem : a European journal of chemical biology, 2011) are described below.

In one experiment the target is NQO1 (QR1) (Homo sapiens, UniProt P15559). The experiment in a line: recombinant human NQO1 activity after treatment with […] compound ± NADH. Format: biochemical.
Experiment [1] deals with T1, NRH:quinone oxidoreductase 2 (NQO2, QR2) (Homo sapiens, UniProt P16083).
T1 sequence (P16083 1-231): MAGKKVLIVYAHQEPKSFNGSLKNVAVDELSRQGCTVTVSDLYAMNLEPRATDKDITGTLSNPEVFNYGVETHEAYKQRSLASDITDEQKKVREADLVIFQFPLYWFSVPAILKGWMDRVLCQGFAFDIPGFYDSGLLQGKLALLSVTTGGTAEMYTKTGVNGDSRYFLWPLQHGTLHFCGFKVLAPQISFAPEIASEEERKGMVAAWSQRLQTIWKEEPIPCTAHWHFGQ
Put plainly: co-crystal structure. Format: binding.

Sequence of NQO1 (QR1) (P15559 whole entry): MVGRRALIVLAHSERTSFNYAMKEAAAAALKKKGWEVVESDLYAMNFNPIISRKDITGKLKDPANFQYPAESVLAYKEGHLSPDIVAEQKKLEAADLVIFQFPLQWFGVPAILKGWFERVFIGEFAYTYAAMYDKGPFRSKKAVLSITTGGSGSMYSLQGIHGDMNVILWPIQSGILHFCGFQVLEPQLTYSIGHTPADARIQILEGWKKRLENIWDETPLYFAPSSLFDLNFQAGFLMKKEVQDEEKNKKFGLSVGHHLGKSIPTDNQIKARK

On to `COC1=CC(=O)c2c(c(COc3ccc([N+](=O)[O-])cc3)c(C)n2C)C1=O` [1a, 5-methoxy-1,2-dimethyl-3-(4-nitrophenoxymethyl)indole-4,7-dione], for which, at NQO1 (QR1), the partition ratio was 3.5 (partition ratio).
As for `Cc1c(COc2ccc([N+](=O)[O-])cc2)c2c(n1C)C(=O)C=C(NCCCCN)C2=O` [2c, 5-(4-Aminobutyl)amino-1,2-dimethyl-3-(4-nitrophenoxy)methylindole-4,7-dione], in experiment [1], the Kd result is on record as “Kd1 = 71; Kd2 = 19 μM”.
